Drawing on patent publication US20250101041A1, “POSITIVE ALLOSTERIC MODULATORS OF THE MUSCARINIC ACETYLCHOLINE RECEPTOR M4” (Vanderbilt University, priority 2022, published 2025), this text covers Emax and EC50 for ten compounds.

One may read the Emax as the size of the effect at its maximum, as opposed to the concentration needed. Broadly, the EC50 is the midpoint of the concentration-response curve.

The experiment has as its target T1, human mAChR M4 (Homo sapiens, UniProt P08173).
T1 construct: expressed in transfected cells; host or cells: CHO-K1 (American Type Culture Collection), stably expressing hM4 and Gqi5
T1 sequence (P08173 1-479): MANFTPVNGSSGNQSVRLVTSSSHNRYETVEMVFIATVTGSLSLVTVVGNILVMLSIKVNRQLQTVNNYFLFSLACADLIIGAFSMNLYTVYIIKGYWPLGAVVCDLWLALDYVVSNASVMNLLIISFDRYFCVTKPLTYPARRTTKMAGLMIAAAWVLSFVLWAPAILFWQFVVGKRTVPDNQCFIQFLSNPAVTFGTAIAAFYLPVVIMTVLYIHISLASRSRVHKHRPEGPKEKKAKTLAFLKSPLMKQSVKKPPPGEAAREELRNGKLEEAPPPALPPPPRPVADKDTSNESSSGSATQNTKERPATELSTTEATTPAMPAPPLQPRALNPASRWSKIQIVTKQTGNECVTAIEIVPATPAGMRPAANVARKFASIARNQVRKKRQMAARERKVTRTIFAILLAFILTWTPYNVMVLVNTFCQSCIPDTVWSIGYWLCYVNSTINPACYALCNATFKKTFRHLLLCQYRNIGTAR
As to the kind of experiment: mAChR M4 cell-based functional assay: calcium mobilization (Fluo-4, FDSS), potentiation of EC20 acetylcholine response in hM4-Gqi5 CHO-K1 cells. Particulars: human M4; for Emax at 30 µM: CHO-K1, % ACh maximum at 30 μM; for EC50: potentiation of EC20 acetylcholine response, calcium mobilization. The essentials: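 CHO-K1 cells stably co-expressing human M4 and chimeric Gqi5, loaded with Fluo-4 AM (50 min, 37 °C). Compounds in 11-point 1:3 series added first; EC20 acetylcholine added at 144 s and again at 230 s. Calcium read on FDSS at 1 Hz; EC50 and Emax from four-parameter logistic fit of potentiated EC20 response.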

On to `COCc1cc(=O)n2nc(N3CCc4ncc(-c5ccc(OC(F)F)nc5)cc4C3)c(C)c(C)c2n1` [Compound 1-373, 7-(3-(6-(difluoromethoxy)pyridin-3-yl)-7,8-dihydro-1,6-naphthyridin-6(5H)-yl)-2-(methoxymethyl)-8,9-dimethyl-4H-pyrimido[1,2-b]pyridazin-4-one], for which the Emax at 30 µM came to 64% and the EC50 came to 299 nM.

Turning to `COCc1cc(=O)n2nc(N3CCc4ncc(-c5ccc(OC(F)F)nc5)cc4C3)c(C)cc2n1` [Compound 1-374, 7-(3-(6-(difluoromethoxy)pyridin-3-yl)-7,8-dihydro-1,6-naphthyridin-6(5H)-yl)-2-(methoxymethyl)-8-methyl-4H-pyrimido[1,2-b]pyridazin-4-one], the Emax at 30 µM was determined as 67% and the 50% effective concentration (EC50) stood at 227 nM.

`Cc1cc(C(F)F)ncc1-c1cnc2c(c1)CN(c1nn3c(=O)ccnc3cc1C)CC2` [Compound 1-375, 7-(3-(6-(difluoromethyl)-4-methylpyridin-3-yl)-7,8-dihydro-1,6-naphthyridin-6(5H)-yl)-8-methyl-4H-pyrimido [1,2-b]pyridazin-4-one]: the Emax at 30 µM turned out to be 75% and the EC50 was determined as 273 nM.

As for `Cc1cc2nccc(=O)n2nc1N1CCc2ncc(Cc3cccnc3)cc2C1` [Compound 1-378, 8-methyl-7-(3-(pyridin-3-ylmethyl)-7,8-dihydro-1,6-naphthyridin-6(5H)-yl)-4H-pyrimido[1,2-b]pyridazin-4-one], the Emax at 30 µM is 83% and the EC50 was 898 nM.

Regarding `COCc1cc(=O)n2nc(N3CCc4ncc(-c5cnc(Cl)cc5C)cc4C3)c(C)c(C)c2n1` [Compound 1-379, 7-(3-(6-chloro-4-methylpyridin-3-yl)-7,8-dihydro-1,6-naphthyridin-6(5H)-yl)-2-(methoxymethyl)-8,9-dimethyl-4H-pyrimido[1,2-b]pyridazin-4-one], the Emax at 30 µM turned out to be 109% and the EC50 came out at 357 nM.

With `COCc1cc(=O)n2nc(N3CCc4ncc(-c5cnn6c5COCC6)cc4C3)c(C)c(C)c2n1` [Compound 1-380, 7-(3-(6,7-dihydro-4H-pyrazolo[5,1-c][1,4]oxazin-3-yl)-7,8-dihydro-1,6-naphthyridin-6(5H)-yl)-2-(methoxymethyl)-8,9-dimethyl-4H-pyrimido[1,2-b] pyridazin-4-one], the Emax at 30 µM worked out at 95% and the EC50 came to 205 nM.

On to `COCc1cc(=O)n2nc(N3CCc4ncc(-c5ncc(C)cc5C)cc4C3)c(C)cc2n1` [Compound 1-381, 7-(3-(3,5-dimethylpyridin-2-yl)-7,8-dihydro-1,6-naphthyridin-6(5H)-yl)-2-(methoxymethyl)-8-methyl-4H-pyrimido[1,2-b] pyridazin-4-one], for which the Emax at 30 µM is 83% and the EC50 is 969 nM.

Take `COCc1cc(=O)n2nc(N3CCc4ncc(-c5ncc(F)cc5F)cc4C3)c(C)cc2n1` [Compound 1-382, 7-(3-(3,5-difluoropyridin-2-yl)-7,8-dihydro-1,6-naphthyridin-6(5H)-yl)-2-(methoxymethyl)-8-methyl-4H-pyrimido[1,2-b] pyridazin-4-one]: the Emax at 30 µM came out at 79% and the EC50 amounted to 467 nM.

`COCc1cc(=O)n2nc(N3CCc4ncc(-c5cc(F)ccn5)cc4C3)c(C)cc2n1` [Compound 1-383, 7-(3-(4-fluoropyridin-2-yl)-7,8-dihydro-1,6-naphthyridin-6(5H)-yl)-2-(methoxymethyl)-8-methyl-4H-pyrimido[1,2-b] pyridazin-4-one]: the Emax at 30 µM was 83% and the EC50 was 647 nM.

On to `COCc1cc(=O)n2nc(N3CCc4ncc(-c5cnccc5OC)cc4C3)c(C)cc2n1` [Compound 1-384, 2-(methoxymethyl)-7-(3-(4-methoxypyridin-3-yl)-7,8-dihydro-1,6-naphthyridin-6(5H)-yl)-8-methyl-4H-pyrimido [1,2-b]pyridazin-4-one], for which the Emax at 30 µM was found to be 83% and the EC50 was determined as 1030 nM.
